Laboratory results as given in US11717508B2, “Compounds, compositions, and methods for inhibiting bacterial growth” (priority 2016, dated 2023).

System: DosRST regulon
Type: cell-based
[1] = Rv1834, WT Mtb treated with HC102A compared to DMSO
[2] = Rv1996, WT Mtb treated with HC102A compared to DMSO
[3] = Rv1997 ctpF, WT Mtb treated with HC102A compared to DMSO
[4] = Rv2003c, WT Mtb treated with HC102A compared to DMSO
[5] = Rv2004c, WT Mtb treated with HC102A compared to DMSO
[6] = Rv2005c, WT Mtb treated with HC102A compared to DMSO
[7] = Rv2006 otsB, WT Mtb treated with HC102A compared to DMSO
[8] = Rv2007c fdxA, WT Mtb treated with HC102A compared to DMSO
[9] = Rv2027c, WT Mtb treated with HC102A compared to DMSO
[10] = Rv2028c, WT Mtb treated with HC102A compared to DMSO
[11] = Rv2030c, WT Mtb treated with HC102A compared to DMSO
[12] = Rv2032, WT Mtb treated with HC102A compared to DMSO
[13] = Rv2623, WT Mtb treated with HC102A compared to DMSO
[14] = Rv2624c, WT Mtb treated with HC102A compared to DMSO

Q: `C[C@@H]1CC(C)(C)C[C@]2(C1)NC(=O)NC2=O` (racemic) [HC102A, 7,7,9-trimethyl-1,3-diazaspiro[4.5]decane-2,4-dione] was tested. Which “Counts per million (CPM) WT_HC102A2, gene MT1861” value (Rv1813c, WT Mtb treated with HC102A, replicate 2) did it give?
A: The value was 147.2 CPM.

Q: And the “Fold change, gene MT1882” value [1]?
A: Its value is 0.4723.

Q: What about the “log2 Fold change, gene MT1882” value [1] of the same compound?
A: Its value is −1.082.

Q: And the “Counts per million (CPM) WT_HC102A1, gene MT1882” value (Rv1834, WT Mtb treated with HC102A, replicate 1)?
A: The value was 37.79 CPM.

Q: What about the “Counts per million (CPM) WT_HC102A2, gene MT1882” value (Rv1834, WT Mtb treated with HC102A, replicate 2) of the same compound?
A: Its value is 31.49 CPM.

Q: And the “Fold change, gene MT2052” value [2]?
A: The value was 0.01797.

Q: What about the “log2 Fold change, gene MT2052” value [2] of the same compound?
A: The value was −5.798.

Q: What about the “Counts per million (CPM) WT_HC102A1, gene MT2052” value (Rv1996, WT Mtb treated with HC102A, replicate 1) of the same compound?
A: The value was 561.6 CPM.

Q: What about the “Counts per million (CPM) WT_HC102A2, gene MT2052” value (Rv1996, WT Mtb treated with HC102A, replicate 2) of the same compound?
A: The value was 277.3 CPM.

Q: What about the “Fold change, gene MT2053” value [3] of the same compound?
A: Its value is 0.04882.

Q: And the “log2 Fold change, gene MT2053” value [3]?
A: The value was −4.356.

Q: What about the “Counts per million (CPM) WT_HC102A1, gene MT2053” value (Rv1997 ctpF, WT Mtb treated with HC102A, replicate 1) of the same compound?
A: Its value is 105.1 CPM.

Q: What about the “Counts per million (CPM) WT_HC102A2, gene MT2053” value (Rv1997 ctpF, WT Mtb treated with HC102A, replicate 2) of the same compound?
A: The value was 117.4 CPM.

Q: And the “Fold change, gene MT2059” value [4]?
A: The value was 0.2227.

Q: What about the “log2 Fold change, gene MT2059” value [4] of the same compound?
A: The value was −2.167.

Q: And the “Counts per million (CPM) WT_HC102A1, gene MT2059” value (Rv2003c, WT Mtb treated with HC102A, replicate 1)?
A: Its value is 203.6 CPM.

Q: What about the “Counts per million (CPM) WT_HC102A2, gene MT2059” value (Rv2003c, WT Mtb treated with HC102A, replicate 2) of the same compound?
A: Its value is 97.15 CPM.

Q: And the “Fold change, gene MT2060” value [5]?
A: The value was 0.2044.

Q: And the “log2 Fold change, gene MT2060” value [5]?
A: Its value is −2.291.

Q: And the “Counts per million (CPM) WT_HC102A1, gene MT2060” value (Rv2004c, WT Mtb treated with HC102A, replicate 1)?
A: The value was 661.2 CPM.

Q: What about the “Counts per million (CPM) WT_HC102A2, gene MT2060” value (Rv2004c, WT Mtb treated with HC102A, replicate 2) of the same compound?
A: The value was 393.9 CPM.

Q: What about the “Fold change, gene MT2061” value [6] of the same compound?
A: The value was 0.1302.

Q: What about the “log2 Fold change, gene MT2061” value [6] of the same compound?
A: The value was −2.942.

Q: And the “Counts per million (CPM) WT_HC102A1, gene MT2061” value (Rv2005c, WT Mtb treated with HC102A, replicate 1)?
A: The value was 308.4 CPM.

Q: And the “Counts per million (CPM) WT_HC102A2, gene MT2061” value (Rv2005c, WT Mtb treated with HC102A, replicate 2)?
A: Its value is 262.8 CPM.

Q: And the “Fold change, gene MT2062” value [7]?
A: The value was 0.2411.

Q: And the “log2 Fold change, gene MT2062” value [7]?
A: Its value is −2.052.

Q: What about the “Counts per million (CPM) WT_HC102A1, gene MT2062” value (Rv2006 otsB, WT Mtb treated with HC102A, replicate 1) of the same compound?
A: Its value is 140.8 CPM.

Q: What about the “Counts per million (CPM) WT_HC102A2, gene MT2062” value (Rv2006 otsB, WT Mtb treated with HC102A, replicate 2) of the same compound?
A: The value was 181.1 CPM.

Q: What about the “Fold change, gene MT2063” value [8] of the same compound?
A: Its value is 0.2221.

Q: What about the “log2 Fold change, gene MT2063” value [8] of the same compound?
A: The value was −2.171.

Q: What about the “Counts per million (CPM) WT_HC102A1, gene MT2063” value (Rv2007c fdxA, WT Mtb treated with HC102A, replicate 1) of the same compound?
A: The value was 1,505.73 CPM.

Q: What about the “Counts per million (CPM) WT_HC102A2, gene MT2063” value (Rv2007c fdxA, WT Mtb treated with HC102A, replicate 2) of the same compound?
A: Its value is 2,151.57 CPM.

Q: What about the “Fold change, gene MT2086” value [9] of the same compound?
A: The value was 0.3538.

Q: What about the “log2 Fold change, gene MT2086” value [9] of the same compound?
A: Its value is −1.499.

Q: What about the “Counts per million (CPM) WT_HC102A1, gene MT2086” value (Rv2027c, WT Mtb treated with HC102A, replicate 1) of the same compound?
A: Its value is 90.79 CPM.

Q: And the “Counts per million (CPM) WT_HC102A2, gene MT2086” value (Rv2027c, WT Mtb treated with HC102A, replicate 2)?
A: Its value is 84.31 CPM.

Q: And the “Fold change, gene MT2087” value [10]?
A: Its value is 0.08322.

Q: What about the “log2 Fold change, gene MT2087” value [10] of the same compound?
A: The value was −3.587.

Q: And the “Counts per million (CPM) WT_HC102A1, gene MT2087” value (Rv2028c, WT Mtb treated with HC102A, replicate 1)?
A: Its value is 62.1 CPM.

Q: What about the “Counts per million (CPM) WT_HC102A2, gene MT2087” value (Rv2028c, WT Mtb treated with HC102A, replicate 2) of the same compound?
A: Its value is 56.17 CPM.

Q: What about the “Fold change, gene MT2089” value [11] of the same compound?
A: The value was 0.06954.

Q: What about the “log2 Fold change, gene MT2089” value [11] of the same compound?
A: Its value is −3.846.

Q: And the “Counts per million (CPM) WT_HC102A1, gene MT2089” value (Rv2030c, WT Mtb treated with HC102A, replicate 1)?
A: The value was 1,125.52 CPM.

Q: And the “Counts per million (CPM) WT_HC102A2, gene MT2089” value (Rv2030c, WT Mtb treated with HC102A, replicate 2)?
A: The value was 784.7 CPM.

Q: And the “Fold change, gene MT2091” value [12]?
A: Its value is 0.06482.

Q: What about the “log2 Fold change, gene MT2091” value [12] of the same compound?
A: Its value is −3.947.

Q: What about the “Counts per million (CPM) WT_HC102A1, gene MT2091” value (Rv2032, WT Mtb treated with HC102A, replicate 1) of the same compound?
A: Its value is 270.6 CPM.

Q: And the “Counts per million (CPM) WT_HC102A2, gene MT2091” value (Rv2032, WT Mtb treated with HC102A, replicate 2)?
A: The value was 336.8 CPM.

Q: What about the “Fold change, gene MT2698” value [13] of the same compound?
A: Its value is 0.02424.

Q: And the “log2 Fold change, gene MT2698” value [13]?
A: Its value is −5.366.

Q: And the “Counts per million (CPM) WT_HC102A1, gene MT2698” value (Rv2623, WT Mtb treated with HC102A, replicate 1)?
A: The value was 903.6 CPM.

Q: What about the “Counts per million (CPM) WT_HC102A2, gene MT2698” value (Rv2623, WT Mtb treated with HC102A, replicate 2) of the same compound?
A: The value was 611.4 CPM.

Q: And the “Fold change, gene MT2699” value [14]?
A: The value was 0.052.

Q: And the “log2 Fold change, gene MT2699” value [14]?
A: Its value is −4.265.

Q: What about the “Counts per million (CPM) WT_HC102A1, gene MT2699” value (Rv2624c, WT Mtb treated with HC102A, replicate 1) of the same compound?
A: Its value is 106.2 CPM.

Q: What about the “Counts per million (CPM) WT_HC102A2, gene MT2699” value (Rv2624c, WT Mtb treated with HC102A, replicate 2) of the same compound?
A: The value was 108.4 CPM.

Q: What about the “Fold change, gene MT2700” value (Rv2625c, WT Mtb treated with HC102A compared to DMSO) of the same compound?
A: The value was 0.02819.
